Measured values reported in PubChem BioAssay AID504473 (NMMLSC, 2011).
Active and inactive are the calls of the source.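 Rule for the calls: active = GFP ratio to DMSO above 1.5 or below 0.66; inactive = the rest.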

Tests used:
Test in all cases: TOR pathway GFP reporter clone modulation in yeast – S. cerevisiae, GFP-tagged clone panel, flow cytometry (AID 504473);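 note: median GFP fluorescence of the cells measured by high-throughput flow cytometry; test concentration not given here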
Details in all cases: S. cerevisiae GFP-tagged strains, 3 h
YJL144W = tested on: YJL144W
YJR148W = tested on: YJR148W
YKL086W = tested on: YKL086W
YKL103C = tested on: YKL103C
YKL119C = tested on: YKL119C
YKR039W = tested on: YKR039W
YKR093W = tested on: YKR093W
YKR094C = tested on: YKR094C
YLL026W = tested on: YLL026W
YLL039C = tested on: YLL039C
YLR058C = tested on: YLR058C
YLR109W = tested on: YLR109W
YLR142W = tested on: YLR142W
YLR185W = tested on: YLR185W
YLR237W = tested on: YLR237W
YLR287C-A = tested on: YLR287C-A
YLR367W = tested on: YLR367W
YML004C = tested on: YML004C
YML026C = tested on: YML026C
YML034W = tested on: YML034W
YML063W = tested on: YML063W
YML128C = tested on: YML128C
YMR105C = tested on: YMR105C
YMR120C = tested on: YMR120C
YMR251W-A = tested on: YMR251W-A
YMR307W = tested on: YMR307W
YNL015W = tested on: YNL015W
YNL068C = tested on: YNL068C
YNL112W = tested on: YNL112W
YNL142W = tested on: YNL142W
YNL214W = tested on: YNL214W
YNR001C = tested on: YNR001C
YOL052C-A = tested on: YOL052C-A
YOR038C = tested on: YOR038C
YOR063W = tested on: YOR063W
YOR136W = tested on: YOR136W
YOR173W = tested on: YOR173W
YOR182C = tested on: YOR182C
YOR371C = tested on: YOR371C
YOR375C = tested on: YOR375C
YPL111W = tested on: YPL111W
YPL131W = tested on: YPL131W
YPL150W = tested on: YPL150W
YPL220W = tested on: YPL220W
YPL265W = tested on: YPL265W
YPR132W = tested on: YPR132W
YPR145W = tested on: YPR145W
YPR184W = tested on: YPR184W

Measured: GFP ratio to DMSO

CO[C@H]1C[C@@H]2CC[C@@H](C)[C@@](O)(O2)C(=O)C(=O)N2CCCC[C@H]2C(=O)O[C@H]([C@H](C)C[C@@H]2CC[C@@H](O)[C@H](OC)C2)CC(=O)[C@H](C)/C=C(\C)[C@@H](O)[C@@H](OC)C(=O)[C@H](C)C[C@H](C)/C=C/C=C/C=C/1C
inactive: YKL086W 1.49 | YKL119C 1.03 | YLR058C 1.04 | YLR109W 1.43 | YLR142W 1.41 | YLR185W 0.705 | YLR237W 0.864 | YML004C 1.5 | YML034W 1.04 | YML063W 0.714 | YMR307W 0.685 | YNL068C 1.06 | YNL112W 0.73 | YNL214W 1.06 | YOR038C 1.21 | YOR063W 0.703 | YOR371C 1.06 | YPL131W 0.781 | YPL150W 1.04 | YPL220W 0.887
active: YJL144W 2.03 | YJR148W 3.38 | YKL103C 2.8 | YKR039W 12.7 | YKR093W 3.56 | YKR094C 0.484 | YLL026W 2.05 | YLL039C 1.77 | YLR287C-A 0.625 | YLR367W 0.635 | YML026C 0.289 | YML128C 2.56 | YMR105C 2.65 | YMR120C 0.612 | YMR251W-A 1.96 | YNL015W 1.88 | YNL142W 15.6 | YNR001C 1.7 | YOL052C-A 2.68 | YOR136W 1.51 | YOR173W 1.86 | YOR182C 0.576 | YOR375C 1.78 | YPL111W 2.16 | YPL265W 3.22 | YPR132W 0.366 | YPR145W 2.19 | YPR184W 2.01
